Laboratory results taken from ChEMBL document CHEMBL4219190, “Studies on synthesis of novel pyrido[2,3-d]pyrimidine derivatives, evaluation of their antimicrobial activity and molecular docking” (Bioorg Med Chem Lett, 2018).
≈ marks a conversion by molar mass, not a printed value.

Legend:
Candida albicans [1] = experiment: Inhibition of ergosterol in Candida albicans MTCC 183 after 20 hrs by UV spectrophotometric method; type: functional, organism-based
Candida albicans [2] = experiment: Antifungal activity against Candida albicans MTCC 183 after 24 hrs by well diffusion method; type: functional; settings: MTCC 183, 24 h
Candida albicans [3] = experiment: Antifungal activity against Candida albicans MTCC 227 after 24 hrs by well diffusion method; type: functional; settings: MTCC 227, 24 h
Candida albicans [4] = experiment: Antifungal activity against Candida albicans MTCC 854 after 24 hrs by well diffusion method; type: functional; settings: MTCC 854, 24 h
Candida albicans [5] = experiment: Antifungal activity against Candida albicans MTCC 1637 after 24 hrs by well diffusion method; type: functional; settings: MTCC 1637, 24 h
Candida albicans [6] = experiment: Antifungal activity against Candida albicans MTCC 3018 after 24 hrs by well diffusion method; type: functional; settings: MTCC 3018, 24 h
Candida albicans [7] = experiment: Antifungal activity against Candida albicans MTCC 3017 after 24 hrs by well diffusion method; type: functional; settings: MTCC 3017, 24 h
Candida albicans [8] = experiment: Antifungal activity against Candida albicans MTCC 3958 after 24 hrs by well diffusion method; type: functional; settings: MTCC 3958, 24 h
Candida albicans [9] = experiment: Antifungal activity against Candida albicans MTCC 4748 after 24 hrs by well diffusion method; type: functional; settings: MTCC 4748, 24 h
Candida albicans [10] = experiment: Antifungal activity against Candida albicans MTCC 7315 after 24 hrs by well diffusion method; type: functional; settings: MTCC 7315, 24 h
Candida parapsilosis [11] = experiment: Antifungal activity against Candida parapsilosis MTCC 1744 after 24 hrs by well diffusion method; type: functional; settings: MTCC 1744, 24 h
[Candida] aaseri [12] = Antifungal activity against Candida aaseri MTCC 1962 after 24 hrs by well diffusion method; type: functional; settings: Yamadazyma aaseri, MTCC 1962, 24 h
Nakaseomyces glabratus [13] = experiment: Antifungal activity against Candida glabrata MTCC 3019 after 24 hrs by well diffusion method; type: functional; settings: MTCC 3019, 24 h
Pichia kudriavzevii [14] = experiment: Antifungal activity against Candida krusei MTCC 3020 after 24 hrs by well diffusion method; type: functional; settings: MTCC 3020, 24 h
Pichia sporocuriosa [15] = experiment: Antifungal activity against Issatchenkia hanoiensis MTCC 4755 after 24 hrs by well diffusion method; type: functional; settings: MTCC 4755, 24 h
Candida albicans [16] = experiment: Fungicidal activity against Candida albicans MTCC 183 incubated for 24 hrs followed by transfer of microbial suspension to Sabouraud dextrose agar plates and measured after 24 hrs post transfer; type: functional; settings: MTCC 183, 24 h
Candida albicans [17] = experiment: Fungicidal activity against Candida albicans MTCC 227 incubated for 24 hrs followed by transfer of microbial suspension to Sabouraud dextrose agar plates and measured after 24 hrs post transfer; type: functional; settings: MTCC 227, 24 h
Candida albicans [18] = experiment: Fungicidal activity against Candida albicans MTCC 854 incubated for 24 hrs followed by transfer of microbial suspension to Sabouraud dextrose agar plates and measured after 24 hrs post transfer; type: functional; settings: MTCC 854, 24 h
Candida albicans [19] = experiment: Fungicidal activity against Candida albicans MTCC 1637 incubated for 24 hrs followed by transfer of microbial suspension to Sabouraud dextrose agar plates and measured after 24 hrs post transfer; type: functional; settings: MTCC 1637, 24 h
Candida albicans [20] = experiment: Fungicidal activity against Candida albicans MTCC 3017 incubated for 24 hrs followed by transfer of microbial suspension to Sabouraud dextrose agar plates and measured after 24 hrs post transfer; type: functional; settings: MTCC 3017, 24 h
Candida albicans [21] = experiment: Fungicidal activity against Candida albicans MTCC 3018 incubated for 24 hrs followed by transfer of microbial suspension to Sabouraud dextrose agar plates and measured after 24 hrs post transfer; type: functional; settings: MTCC 3018, 24 h
Candida albicans [22] = experiment: Fungicidal activity against Candida albicans MTCC 3958 incubated for 24 hrs followed by transfer of microbial suspension to Sabouraud dextrose agar plates and measured after 24 hrs post transfer; type: functional; settings: MTCC 3958, 24 h
Candida albicans [23] = experiment: Fungicidal activity against Candida albicans MTCC 4748 incubated for 24 hrs followed by transfer of microbial suspension to Sabouraud dextrose agar plates and measured after 24 hrs post transfer; type: functional; settings: MTCC 4748, 24 h
Candida albicans [24] = experiment: Fungicidal activity against Candida albicans MTCC 7315 incubated for 24 hrs followed by transfer of microbial suspension to Sabouraud dextrose agar plates and measured after 24 hrs post transfer; type: functional; settings: MTCC 7315, 24 h
Candida parapsilosis [25] = experiment: Fungicidal activity against Candida parapsilosis MTCC 1744 incubated for 24 hrs followed by transfer of microbial suspension to Sabouraud dextrose agar plates and measured after 24 hrs post transfer; type: functional; settings: Lodderomyces parapsilosis, MTCC 1744, 24 h
[Candida] aaseri [26] = Fungicidal activity against Candida aaseri MTCC 1962 incubated for 24 hrs followed by transfer of microbial suspension to Sabouraud dextrose agar plates and measured after 24 hrs post transfer; type: functional; settings: Yamadazyma aaseri, MTCC 1962, 24 h
Nakaseomyces glabratus [27] = experiment: Fungicidal activity against Candida glabrata MTCC 3019 incubated for 24 hrs followed by transfer of microbial suspension to Sabouraud dextrose agar plates and measured after 24 hrs post transfer; type: functional; settings: MTCC 3019, 24 h
Pichia kudriavzevii [28] = experiment: Fungicidal activity against Candida krusei MTCC 3020 incubated for 24 hrs followed by transfer of microbial suspension to Sabouraud dextrose agar plates and measured after 24 hrs post transfer; type: functional; settings: MTCC 3020, 24 h
Pichia sporocuriosa [29] = experiment: Fungicidal activity against Issatchenkia hanoiensis MTCC 4755 incubated for 24 hrs followed by transfer of microbial suspension to Sabouraud dextrose agar plates and measured after 24 hrs post transfer; type: functional; settings: MTCC 4755, 24 h

MIC (Candida albicans [2]): 7.8 µg/mL (≈ 18.7 µM)
MIC (Candida albicans [3]): 7.8 µg/mL (≈ 18.7 µM)
MIC (Candida albicans [4]): 7.8 µg/mL (≈ 18.7 µM)
MIC (Candida albicans [5]): 7.8 µg/mL (≈ 18.7 µM)
MIC (Candida albicans [6]): 7.8 µg/mL (≈ 18.7 µM)
MIC (Candida albicans [7]): 7.8 µg/mL (≈ 18.7 µM)
MIC (Candida albicans [8]): 7.8 µg/mL (≈ 18.7 µM)
MIC (Candida albicans [9]): 7.8 µg/mL (≈ 18.7 µM)
MIC (Candida albicans [10]): 7.8 µg/mL (≈ 18.7 µM)
MIC (Candida parapsilosis [11]): 7.8 µg/mL (≈ 18.7 µM)
MIC ([Candida] aaseri [12]): 7.8 µg/mL (≈ 18.7 µM)
MIC (Nakaseomyces glabratus [13]): 7.8 µg/mL (≈ 18.7 µM)
MIC (Pichia kudriavzevii [14]): 7.8 µg/mL (≈ 18.7 µM)
MIC (Pichia sporocuriosa [15]): 7.8 µg/mL (≈ 18.7 µM)
SMILES: Clc1ccc(COC(Cn2ccnc2)c2ccc(Cl)cc2Cl)c(Cl)c1 (centres undefined) [MICONAZOLE]
inhibition (Candida albicans [1]): Dose-dependent effect
MFC (Candida albicans [16]): 7.8 µg/mL (≈ 18.7 µM)
MFC (Candida albicans [17]): 7.8 µg/mL (≈ 18.7 µM)
MFC (Candida albicans [18]): 15.6 µg/mL (≈ 37.5 µM)
MFC (Candida albicans [19]): 7.8 µg/mL (≈ 18.7 µM)
MFC (Candida albicans [20]): 7.8 µg/mL (≈ 18.7 µM)
MFC (Candida albicans [21]): 15.6 µg/mL (≈ 37.5 µM)
MFC (Candida albicans [22]): 7.8 µg/mL (≈ 18.7 µM)
MFC (Candida albicans [23]): 7.8 µg/mL (≈ 18.7 µM)
MFC (Candida albicans [24]): 15.6 µg/mL (≈ 37.5 µM)
MFC (Candida parapsilosis [25]): 7.8 µg/mL (≈ 18.7 µM)
MFC ([Candida] aaseri [26]): 15.6 µg/mL (≈ 37.5 µM)
MFC (Nakaseomyces glabratus [27]): 7.8 µg/mL (≈ 18.7 µM)
MFC (Pichia kudriavzevii [28]): 15.6 µg/mL (≈ 37.5 µM)
MFC (Pichia sporocuriosa [29]): 15.6 µg/mL (≈ 37.5 µM)
